Results from US6737383B1, “Herbicidal oxadiazolidines” (priority 1999, dated 2004).

What was measured:
wild oat = test: Test B pre/postemergence wild oat; assay type: in vivo, Avena fatua
Outline: (§1)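 Test chemicals in a non-phytotoxic solvent mixture with surfactant were sprayed preemergence onto planted seeds and postemergence onto plants 2 to 18 cm tall (1- to 4-leaf stage). After twelve to sixteen days in a greenhouse, injury was visually rated against untreated controls from 0 (no effect) to 10 (complete control).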

soybean = test: Test B pre/postemergence soybean; assay type: in vivo, Glycine max
Outline: as §1

wheat = test: Test B pre/postemergence wheat; assay type: in vivo, Triticum aestivum
Outline: as §1

purple nutsedge = test: Test B pre/postemergence purple nutsedge; assay type: in vivo, Cyperus rotundus
Outline: as §1

pigweed = test: Test B pre/postemergence pigweed; assay type: in vivo, Amaranthus retroflexus
Outline: as §1

bedstraw = test: Test B pre/postemergence bedstraw; assay type: in vivo, Galium aparine; conditions: for Plant response rating, Bedstraw: scale of 0 to 10 where 0 is no effect and 10 is complete control
Outline: as §1

cocklebur = test: Test B pre/postemergence cocklebur; assay type: in vivo, Xanthium strumarium
Outline: as §1

surinam grass = test: Test B pre/postemergence surinam grass; assay type: in vivo, Brachiaria decumbens
Outline: as §1

giant foxtail = test: Test B pre/postemergence giant foxtail; assay type: in vivo, Setaria faberii
Outline: as §1

morningglory = test: Test B pre/postemergence morningglory; assay type: in vivo, Ipomoea hederacea
Outline: as §1

corn = test: Test B pre/postemergence corn; assay type: in vivo, Zea mays
Outline: as §1

velvetleaf = test: Test B pre/postemergence velvetleaf; assay type: in vivo, Abutilon theophrasti
Outline: as §1

crabgrass = test: Test B pre/postemergence crabgrass; assay type: in vivo, Digitaria sanguinalis
Outline: as §1

blackgrass = test: Test B pre/postemergence blackgrass; assay type: in vivo, Alopecurus myosuroides
Outline: as §1

rape = test: Test B pre/postemergence rape; assay type: in vivo, Brassica napus
Outline: as §1

sugar beet = test: Test B pre/postemergence sugar beet; assay type: in vivo, Beta vulgaris
Outline: as §1

[1] = Postemergence, Rate 125 g/ha, scale 0 to 10, 0 is no effect, 10 is complete control
[2] = Postemergence, Rate 500 g/ha, scale 0 to 10, 0 is no effect, 10 is complete control
[3] = Preemergence, Rate 62 g/ha, scale of 0 to 10 where 0 is no effect and 10 is complete control
[4] = Preemergence, Rate 125 g/ha, scale 0 to 10, 0 is no effect, 10 is complete control
[5] = Preemergence, Rate 500 g/ha, scale of 0 to 10 where 0 is no effect and 10 is complete control
[6] = Rate 62 g/ha, Postemergence, scale 0 to 10, 0 no effect, 10 complete control
[7] = Preemergence, Rate 250 g/ha, scale 0 to 10, 0 is no effect, 10 is complete control
[8] = Preemergence, Rate 500 g/ha, scale 0 to 10, 0 is no effect, 10 is complete control
[9] = Postemergence, Rate 250 g/ha, scale 0 to 10

CC(C)N(C(=O)n1oc(=O)n(CC2=CCCN(C)C2)c1=O)c1ccccc1 [Compound 497]
Wild oats plant response rating (wild oat; [1]): 0
Plant response rating, Wild oats (wild oat; [2]): 0
Plant response rating, Wild oats (wild oat; [3]): 0
Wild oats plant response rating (wild oat; [4]): 0
Wild oats plant response rating (wild oat; [5]): 0
Wild oats plant response rating (wild oat; [6]): 0
Soybean plant response rating (soybean; [1]): 1
Plant response rating, Soybean (soybean; [2]): 2
Plant response rating, Soybean (soybean; [3]): 0
Soybean plant response rating (soybean; [4]): 0
Soybean plant response rating (soybean; [5]): 0
Soybean plant response rating (soybean; [6]): 0
Wheat plant response rating (wheat; [1]): 0
Plant response rating, Wheat (wheat; [2]): 0
Plant response rating, Wheat (wheat; [3]): 0
Wheat plant response rating (wheat; [4]): 0
Wheat plant response rating (wheat; [5]): 0
Wheat plant response rating (wheat; [6]): 0
Nutsedge plant response rating (purple nutsedge; [1]): 0
Plant response rating, Nutsedge (purple nutsedge; [2]): 0
Plant response rating, Nutsedge (purple nutsedge; [3]): 0
Nutsedge plant response rating (purple nutsedge; [4]): 0
Nutsedge plant response rating (purple nutsedge; [5]): 0
Nutsedge plant response rating (purple nutsedge; [6]): 0
Redroot pigweed plant response rating (pigweed; [1]): 0
Plant response rating, Redroot pigweed (pigweed; [2]): 0
Plant response rating, Redroot pigweed (pigweed; [3]): 0
Redroot pigweed plant response rating (pigweed; [4]): 0
Redroot pigweed plant response rating (pigweed; [5]): 0
Redroot pigweed plant response rating (pigweed; [6]): 0
Bedstraw plant response rating (bedstraw; [1]): 0
Plant response rating, Bedstraw (bedstraw; Preemergence, Rate 62 g/ha): 0
Bedstraw plant response rating (bedstraw; [7]): 0
Bedstraw plant response rating (bedstraw; [8]): 0
Bedstraw plant response rating (bedstraw; [6]): 0
Cocklebur plant response rating (cocklebur; [1]): 0
Cocklebur plant response rating (cocklebur; [9]): 0
Plant response rating, Cocklebur (cocklebur; [2]): 0
Plant response rating, Cocklebur (cocklebur; [3]): 0
Cocklebur plant response rating (cocklebur; [4]): 0
Cocklebur plant response rating (cocklebur; [7]): 0
Cocklebur plant response rating (cocklebur; [5]): 0
Cocklebur plant response rating (cocklebur; [6]): 0
B. signalgrass plant response rating (surinam grass; [1]): 0
B. signalgrass plant response rating (surinam grass; Postemergence, Rate 250 g/ha, scale 0 to 10, 0 no effect, 10 complete control): 0
Plant response rating, B. signalgrass (surinam grass; [2]): 0
Plant response rating, B. signalgrass (surinam grass; [3]): 0
B. signalgrass plant response rating (surinam grass; [4]): 0
B. signalgrass plant response rating (surinam grass; [7]): 0
B. signalgrass plant response rating (surinam grass; [8]): 0
B. signalgrass plant response rating (surinam grass; [6]): 0
Giant foxtail plant response rating (giant foxtail; [1]): 0
Plant response rating, Giant foxtail (giant foxtail; [2]): 0
Plant response rating, Giant foxtail (giant foxtail; [3]): 0
Giant foxtail plant response rating (giant foxtail; [4]): 0
Giant foxtail plant response rating (giant foxtail; [5]): 0
Giant foxtail plant response rating (giant foxtail; [6]): 0
Morningglory plant response rating (morningglory; [1]): 0
Plant response rating, Morningglory (morningglory; [2]): 0
Plant response rating, Morningglory (morningglory; [3]): 0
Morningglory plant response rating (morningglory; [4]): 0
Morningglory plant response rating (morningglory; [5]): 0
Morningglory plant response rating (morningglory; [6]): 0
Corn plant response rating (corn; [1]): 0
Corn plant response rating (corn; [9]): 0
Plant response rating, Corn (corn; [2]): 0
Plant response rating, Corn (corn; [3]): 0
Corn plant response rating (corn; [4]): 0
Corn plant response rating (corn; [5]): 0
Corn plant response rating (corn; [6]): 0
Velvetleaf plant response rating (velvetleaf; [1]): 0
Plant response rating, Velvetleaf (velvetleaf; [2]): 0
Plant response rating, Velvetleaf (velvetleaf; [3]): 0
Velvetleaf plant response rating (velvetleaf; [4]): 0
Velvetleaf plant response rating (velvetleaf; [5]): 0
Velvetleaf plant response rating (velvetleaf; [6]): 0
Crabgrass plant response rating (crabgrass; [1]): 0
Crabgrass plant response rating (crabgrass; [9]): 0
Plant response rating, Crabgrass (crabgrass; [2]): 0
Plant response rating, Crabgrass (crabgrass; [3]): 0
Crabgrass plant response rating (crabgrass; [4]): 0
Crabgrass plant response rating (crabgrass; [5]): 0
Crabgrass plant response rating (crabgrass; [6]): 0
Blackgrass plant response rating (blackgrass; [1]): 0
Blackgrass plant response rating (blackgrass; [9]): 0
Plant response rating, Blackgrass (blackgrass; [2]): 0
Plant response rating, Blackgrass (blackgrass; [3]): 0
Blackgrass plant response rating (blackgrass; [4]): 0
Blackgrass plant response rating (blackgrass; [7]): 0
Blackgrass plant response rating (blackgrass; [5]): 0
Blackgrass plant response rating (blackgrass; [6]): 0
Rape plant response rating (rape; [1]): 0
Plant response rating, Rape (rape; [2]): 0
Plant response rating, Rape (rape; [3]): 0
Rape plant response rating (rape; [4]): 0
Rape plant response rating (rape; [5]): 0
Rape plant response rating (rape; [6]): 0
Sugarbeets plant response rating (sugar beet; [1]): 0
Plant response rating, Sugarbeets (sugar beet; [2]): 0
Plant response rating, Sugarbeets (sugar beet; [3]): 0
Sugarbeets plant response rating (sugar beet; [4]): 0
Sugarbeets plant response rating (sugar beet; [5]): 0
Sugarbeets plant response rating (sugar beet; [6]): 0

CC(C)N(C(=O)n1oc(=O)n(CCC2OCCCO2)c1=O)c1ccc(F)cc1F [Compound 502]
Plant response rating, Wild oats (wild oat; [3]): 9
Wild oats plant response rating (wild oat; [4]): 9
Wild oats plant response rating (wild oat; [5]): 10
Plant response rating, Soybean (soybean; [3]): 0
Soybean plant response rating (soybean; [4]): 4
Soybean plant response rating (soybean; [5]): 5
Plant response rating, Wheat (wheat; [3]): 0
Wheat plant response rating (wheat; [4]): 3
Wheat plant response rating (wheat; [5]): 7
Plant response rating, Nutsedge (purple nutsedge; [3]): 0
Plant response rating, Redroot pigweed (pigweed; [3]): 9
Redroot pigweed plant response rating (pigweed; [4]): 9
Redroot pigweed plant response rating (pigweed; [5]): 10
Plant response rating, Bedstraw (bedstraw; Preemergence, Rate 62 g/ha): 10
Bedstraw plant response rating (bedstraw; [7]): 10
Bedstraw plant response rating (bedstraw; [8]): 10
Plant response rating, Cocklebur (cocklebur; [3]): 0
Cocklebur plant response rating (cocklebur; [4]): 0
Cocklebur plant response rating (cocklebur; [7]): 0
Cocklebur plant response rating (cocklebur; [5]): 9
Plant response rating, B. signalgrass (surinam grass; [3]): 6
B. signalgrass plant response rating (surinam grass; [4]): 9
B. signalgrass plant response rating (surinam grass; [7]): 10
B. signalgrass plant response rating (surinam grass; [8]): 10
Plant response rating, Giant foxtail (giant foxtail; [3]): 10
Giant foxtail plant response rating (giant foxtail; [4]): 10
Giant foxtail plant response rating (giant foxtail; [5]): 10
Plant response rating, Morningglory (morningglory; [3]): 0
Morningglory plant response rating (morningglory; [4]): 2
Morningglory plant response rating (morningglory; [5]): 4
Plant response rating, Corn (corn; [3]): 0
Corn plant response rating (corn; [4]): 8
Corn plant response rating (corn; [5]): 9
Plant response rating, Velvetleaf (velvetleaf; [3]): 0
Velvetleaf plant response rating (velvetleaf; [4]): 5
Velvetleaf plant response rating (velvetleaf; [5]): 8
Plant response rating, Crabgrass (crabgrass; [3]): 10
Crabgrass plant response rating (crabgrass; [4]): 10
Crabgrass plant response rating (crabgrass; [5]): 10
Plant response rating, Blackgrass (blackgrass; [3]): 10
Blackgrass plant response rating (blackgrass; [4]): 10
Blackgrass plant response rating (blackgrass; [7]): 10
Blackgrass plant response rating (blackgrass; [5]): 10
Plant response rating, Rape (rape; [3]): 2
Rape plant response rating (rape; [4]): 3
Rape plant response rating (rape; [5]): 9
Plant response rating, Sugarbeets (sugar beet; [3]): 0
Sugarbeets plant response rating (sugar beet; [4]): 2
Sugarbeets plant response rating (sugar beet; [5]): 7
